In article PMC5025651, “Reprofiled anthelmintics abate hypervirulent stationary-phase Clostridium difficile” (Scientific Reports, 2016):
≈ marks a conversion by molar mass, not a printed value. Read-outs that look alike come from different tables or passages of the source.

Tests used:
L. plantarum ATCC 8014 = test: MIC by broth microdilution; type: cell-based; conditions: Lactiplantibacillus plantarum
C. difficile strain 4118 = test: Time-kill kinetics against stationary-phase cultures; type: cell-based, Clostridium difficile; conditions: stationary-phase CD4118; for log decrease in the number of CFUs: 4 × MIC, 24 h; for time to eradicate >99.9% of viable cells: 16× MIC (rafoxanide 2 μg/mL, closantel 4 μg/mL, compound 8 1 μg/mL)
Experimental: At t = 0, 3, 6 and 24 h, sample aliquots were withdrawn from the treated cultures and bacterial viability was scored by plating serial dilutions on BHIS agar plates. The agar plates were incubated in the anaerobic chamber for 20–24 h at 37 °C. Kinetic experiments were performed at least twice.

[1] = system: B. longum subsp. longum Strain 44B; test: MIC by broth microdilution; type: cell-based; conditions: Bifidobacterium longum
[2] = system: C. difficile isolate 20110960 (ribotype 017); test: MIC by broth microdilution; type: cell-based, Clostridium difficile; conditions: Clostridioides difficile
P. nigrescens ATCC 33563 = test: MIC by broth microdilution; type: cell-based; conditions: Prevotella nigrescens, ATCC33563
[3] = system: C. clostridioforme ATCC 25537; test: MIC by broth microdilution; type: cell-based, Clostridium clostridioforme; conditions: Clostridium, ATCC25537
[4] = system: C. difficile isolate 20100422 (ribotype 054); test: MIC by broth microdilution; type: cell-based, Clostridium difficile; conditions: Clostridioides difficile
[5] = system: C. difficile isolate 20110740 (ribotype 018); test: MIC by broth microdilution; type: cell-based, Clostridium difficile; conditions: Clostridioides difficile
[6] = system: C. difficile isolate 20111163 (ribotype 024); test: MIC by broth microdilution; type: cell-based, Clostridium difficile; conditions: Clostridioides difficile
P. aeruginosa PAO1 = test: MIC by broth microdilution; type: cell-based; conditions: Pseudomonas aeruginosa
S. aureus RN4220 = test: MIC by broth microdilution; type: cell-based; conditions: Staphylococcus aureus, CAMHB, aerobic, duplicate
[7] = system: L. johnsonii Strain 135-1-CHN; test: MIC by broth microdilution; type: cell-based; conditions: Lactobacillus johnsonii, STRAIN1351CHN
[8] = system: C. difficile isolate 20110961 (ribotype A12); test: MIC by broth microdilution; type: cell-based, Clostridium difficile; conditions: Clostridioides difficile
B. subtilis ATCC 6051 = test: MIC by broth microdilution; type: cell-based; conditions: Bacillus subtilis, ATCC6051
[9] = system: C. difficile strain 4118 (CD4118, ATCC BAA-1870, ribotype 027); test: MIC by broth microdilution; type: cell-based, Clostridium difficile; conditions: for MIC: Clostridioides difficile
[10] = system: C. difficile isolate 20110566 (ribotype 020); test: MIC by broth microdilution; type: cell-based, Clostridium difficile; conditions: Clostridioides difficile
[11] = system: C. difficile isolate 20110869 (ribotype 001_072); test: MIC by broth microdilution; type: cell-based, Clostridium difficile; conditions: Clostridioides difficile
[12] = system: B. fragilis Strain CL05T00C42; test: MIC by broth microdilution; type: cell-based; conditions: Bacteroides fragilis
[13] = system: B. breve Strain EX336960VC19; test: MIC by broth microdilution; type: cell-based; conditions: Bifidobacterium breve
[14] = system: C. difficile isolate 20110986 (ribotype 078); test: MIC by broth microdilution; type: cell-based, Clostridium difficile; conditions: Clostridioides difficile
[15] = system: C. difficile isolate 20110973 (ribotype 106); test: MIC by broth microdilution; type: cell-based, Clostridium difficile; conditions: Clostridioides difficile
[16] = system: C. difficile isolate 20121190 (ribotype 126); test: MIC by broth microdilution; type: cell-based, Clostridium difficile; conditions: Clostridioides difficile
Hemolysis assay = type: cell-based; conditions: sheep, pH 7.4, 32 µg/mL, 1 h, 37 °C, 1% Triton X-100 positive control, triplicate, read-out: Hemolysis (%)
Experimental: Sheep red blood cells (Innovative Research, Novi, MI, USA) were washed three times with PBS pH 7.4. A 3% cell suspension in PBS (100 μL) was added to test compounds in PBS (100 μL, to a final concentration of 32 μg/mL), and then incubated at 37 °C for 1 h. The plate was centrifuged at 500 × g for 10 min, and supernatants (100 μL) were transferred to a clean 96-well plate. Hemolysis was determined by measuring absorbance at 540 nm, with 1% Triton X-100 as the positive control and 0.5% DMSO in PBS as the negative control. Hemolysis assays were performed in triplicate.

S. epidermidis 1457 = test: MIC by broth microdilution; type: cell-based; conditions: Staphylococcus epidermidis
[17] = system: C. difficile isolate 20121412 (ribotype 047); test: MIC by broth microdilution; type: cell-based, Clostridium difficile; conditions: Clostridioides difficile
P. distasonis ATCC 8503 = test: MIC by broth microdilution; type: cell-based; conditions: Parabacteroides distasonis, ATCC8503
A. baumannii M2 = test: MIC by broth microdilution; type: cell-based; conditions: Acinetobacter baumannii
[18] = system: C. difficile isolate 20110742 (ribotype 002); test: MIC by broth microdilution; type: cell-based, Clostridium difficile; conditions: Clostridioides difficile
[19] = system: C. difficile isolate 20120016 (ribotype 019); test: MIC by broth microdilution; type: cell-based, Clostridium difficile; conditions: Clostridioides difficile
16 C. difficile isolates = test: MIC by broth microdilution, summary over 16 C. difficile isolates; type: cell-based, Clostridium difficile
[20] = system: C. difficile isolate 20100584 (ribotype 014); test: MIC by broth microdilution; type: cell-based, Clostridium difficile; conditions: Clostridioides difficile
C. sporogenes ATCC 15579 = test: MIC by broth microdilution; type: cell-based; conditions: Clostridium sporogenes, ATCC15579, BHIS, anaerobic, duplicate
[21] = system: L. reuteri Strain CF48-3A; test: MIC by broth microdilution; type: cell-based, Lactobacillus reuteri; conditions: Limosilactobacillus reuteri

O=C(Nc1ccc(Oc2ccc(Cl)cc2)c(Cl)c1)c1cc(I)cc(I)c1O [Rafoxanide, rafoxanide]
MIC (L. plantarum ATCC 8014; ATCC8014, 48 h): 32 µg/mL (≈ 51.1 µM) | log decrease in the number of CFUs (C. difficile strain 4118): 2.7 log | time to eradicate >99.9% of viable cells (C. difficile strain 4118): 6 h | MIC [1]: 8 µg/mL (≈ 12.8 µM) | MIC [2]: 0.06 µg/mL (≈ 0.0958 µM) | MIC (P. nigrescens ATCC 33563): 8 µg/mL (≈ 12.8 µM) | MIC [3]: 1 µg/mL (≈ 1.6 µM) | MIC [4]: 0.13 µg/mL (≈ 0.208 µM) | MIC [5]: 0.06 µg/mL (≈ 0.0958 µM) | MIC [6]: 0.06 µg/mL (≈ 0.0958 µM) | MIC (P. aeruginosa PAO1; PAO1): > 32 µg/mL | MIC (S. aureus RN4220): 0.25 µg/mL (≈ 0.399 µM) | MIC ([7]; 48 h): 32 µg/mL (≈ 51.1 µM) | MIC [8]: 0.06 µg/mL (≈ 0.0958 µM) | MIC (B. subtilis ATCC 6051): ≤ 0.03 µg/mL | MIC C. difficile 4118 ([9]; BHIS broth, anaerobic, 20–24 h, n = 2): 0.13 µg/mL (≈ 0.208 µM) | MIC ([9]; ATCCBAA1870, read-out: MIC C. difficile 4118): 0.13 µg/mL (≈ 0.208 µM) | MIC [10]: 0.06 µg/mL (≈ 0.0958 µM) | MIC [11]: 0.13 µg/mL (≈ 0.208 µM) | MIC [12]: 32 µg/mL (≈ 51.1 µM) | MIC [13]: 16 to 32 µg/mL (≈ 25.6 to 51.1 µM) | MIC [14]: 0.06 to 0.13 µg/mL (≈ 0.0958 to 0.208 µM) | MIC [15]: 0.06 µg/mL (≈ 0.0958 µM) | MIC [16]: 0.13 µg/mL (≈ 0.208 µM) | hemolysis at 1 h, 32 µg/mL (Hemolysis assay): < 1% | MIC (S. epidermidis 1457; 1457): ≤ 0.03 µg/mL | MIC [17]: 0.03 µg/mL (≈ 0.0479 µM) | MIC (P. distasonis ATCC 8503): 8 µg/mL (≈ 12.8 µM) | MIC (A. baumannii M2; M2): > 32 µg/mL | MIC [18]: 0.06 µg/mL (≈ 0.0958 µM) | MIC [19]: 0.13 µg/mL (≈ 0.208 µM) | MIC50 (16 C. difficile isolates; Clostridioides difficile): 0.06 µg/mL (≈ 0.0958 µM) | MIC90 (16 C. difficile isolates; Clostridioides difficile): 0.13 µg/mL (≈ 0.208 µM) | MIC Range (16 C. difficile isolates; range over 16 C. difficile isolates, n = 2): 0.03 to 0.13 µg/mL | MIC [20]: 0.06 µg/mL (≈ 0.0958 µM) | MIC (C. sporogenes ATCC 15579): 1 µg/mL (≈ 1.6 µM) | MIC ([21]; 48 h): 16 µg/mL (≈ 25.6 µM)

O=C(Nc1ccc(Oc2ccc(Cl)cc2)cc1)c1cc(Cl)cc(Cl)c1O [Compound 8]
MIC (L. plantarum ATCC 8014; ATCC8014, L. plantarum ATCC 8014, CAMHB with 5% laked horse blood, ~48 h, duplicate, read-out: MIC): 16 µg/mL (≈ 39.2 µM) | log decrease in the number of CFUs (C. difficile strain 4118): 2.4 log | time to eradicate >99.9% of viable cells (C. difficile strain 4118): 24 h | MIC ([1]; B. longum subsp. longum 44B, LSM broth, anaerobic, duplicate, read-out: MIC): 8 µg/mL (≈ 19.6 µM) | MIC ([2]; isolate 20110960, ribotype 017, duplicate, read-out: MIC): 0.06 µg/mL (≈ 0.147 µM) | MIC (P. nigrescens ATCC 33563; P. nigrescens ATCC 33563, supplemented Brucella broth, anaerobic, duplicate, read-out: MIC): 4 µg/mL (≈ 9.79 µM) | MIC ([3]; C. clostridioforme ATCC 25537, BHIS, anaerobic, duplicate, read-out: MIC): 4 µg/mL (≈ 9.79 µM) | MIC ([4]; isolate 20100422, ribotype 054, duplicate, read-out: MIC): 0.25 µg/mL (≈ 0.612 µM) | MIC ([5]; isolate 20110740, ribotype 018, duplicate, read-out: MIC): 0.06 µg/mL (≈ 0.147 µM) | MIC ([6]; isolate 20111163, ribotype 024, duplicate, read-out: MIC): 0.13 µg/mL (≈ 0.318 µM) | MIC (P. aeruginosa PAO1; P. aeruginosa PAO1, CAMHB, aerobic, duplicate, read-out: MIC): > 32 µg/mL | MIC (S. aureus RN4220): 0.13 µg/mL (≈ 0.318 µM) | MIC ([7]; L. johnsonii 135-1-CHN, CAMHB with 5% laked horse blood, ~48 h, duplicate, read-out: MIC): 32 µg/mL (≈ 78.3 µM) | MIC ([8]; isolate 20110961, ribotype A12, duplicate, read-out: MIC): 0.13 µg/mL (≈ 0.318 µM) | MIC (B. subtilis ATCC 6051; B. subtilis ATCC 6051, CAMHB, aerobic, duplicate, read-out: MIC): ≤ 0.03 µg/mL | MIC ([9]; ATCCBAA1870, BHIS broth, anaerobic, 20–24 h, n = 2, read-out: MIC C. difficile 4118): 0.06 µg/mL (≈ 0.147 µM) | MIC ([10]; isolate 20110566, ribotype 020, duplicate, read-out: MIC): 0.06 µg/mL (≈ 0.147 µM) | MIC ([11]; isolate 20110869, ribotype 001_072, duplicate, read-out: MIC): 0.06 to 0.13 µg/mL (≈ 0.147 to 0.318 µM) | MIC ([12]; B. fragilis CL05T00C42, supplemented Brucella broth, anaerobic, duplicate, read-out: MIC): 16 µg/mL (≈ 39.2 µM) | MIC ([13]; B. breve EX336960VC19, LSM broth, anaerobic, duplicate, read-out: MIC): 8 µg/mL (≈ 19.6 µM) | MIC ([14]; isolate 20110986, ribotype 078, duplicate, read-out: MIC): 0.06 µg/mL (≈ 0.147 µM) | MIC ([15]; isolate 20110973, ribotype 106, duplicate, read-out: MIC): 0.03 µg/mL (≈ 0.0734 µM) | MIC ([16]; isolate 20121190, ribotype 126, duplicate, read-out: MIC): 0.25 µg/mL (≈ 0.612 µM) | hemolysis at 1 h, 32 µg/mL (Hemolysis assay; sheep red blood cells (3% suspension)): < 1% | MIC (S. epidermidis 1457; S. epidermidis 1457, CAMHB, aerobic, duplicate, read-out: MIC): ≤ 0.03 µg/mL | MIC ([17]; isolate 20121412, ribotype 047, duplicate, read-out: MIC): 0.13 µg/mL (≈ 0.318 µM) | MIC (P. distasonis ATCC 8503; P. distasonis ATCC 8503, supplemented Brucella broth, anaerobic, duplicate, read-out: MIC): 4 µg/mL (≈ 9.79 µM) | MIC (A. baumannii M2; A. baumannii M2, CAMHB, aerobic, duplicate, read-out: MIC): 32 µg/mL (≈ 78.3 µM) | MIC ([18]; isolate 20110742, ribotype 002, duplicate, read-out: MIC): 0.06 µg/mL (≈ 0.147 µM) | MIC ([19]; isolate 20120016, ribotype 019, duplicate, read-out: MIC): 0.13 µg/mL (≈ 0.318 µM) | MIC (16 C. difficile isolates; Clostridioides difficile, 14 isolates other than CD630 and CD4118, read-out: MIC values ranging, 14 other C. difficile isolates): 0.03 to 0.25 µg/mL (≈ 0.0734 to 0.612 µM) | MIC50 (16 C. difficile isolates; MIC at which 50% of the 16 isolates are inhibited, n = 2): 0.06 µg/mL (≈ 0.147 µM) | MIC90 (16 C. difficile isolates; MIC at which 90% of the 16 isolates are inhibited, n = 2): 0.25 µg/mL (≈ 0.612 µM) | MIC ([20]; isolate 20100584, ribotype 014, duplicate, read-out: MIC): 0.06 µg/mL (≈ 0.147 µM) | MIC (C. sporogenes ATCC 15579): 4 µg/mL (≈ 9.79 µM) | MIC ([21]; L. reuteri CF48-3A, CAMHB with 5% laked horse blood, ~48 h, duplicate, read-out: MIC): 16 µg/mL (≈ 39.2 µM)
